Measurements taken from patent US20230312577A1, “DUAL KINASE-BROMODOMAIN INHIBITORS” (MONASH UNIVERSITY, priority 2020, published 2023).

Tests used:
[1] = tested on: OPM2 cells; assay: Cell proliferation assay (ViaLight, cellular ATP); type: cell-based; conditions: Homo sapiens, OPM-2, 120 h, 5 days, 5 μM to 1 nM
Experimental: OPM2 cells (1×10^3) were plated in a 96 well plate. Test compounds were added to cells at final concentrations ranging from 5 μM to 1 nM. They were incubated for 5 days before they were analysed using ViaLight luminescence-based proliferation assays which detect cellular ATP, as per the manufacturer's instructions. All samples were prepared in technical triplicates. Data analysis was performed in GraphPad Prism version 7.00 for Mac OS X, (GraphPad Software, San Diego California USA) in order to calculate the GI50.

[2] = molecular target: T1, PI3K; assay: PI3K enzyme activity assay (luminescence, ATP consumption, Kinase-Glo); type: biochemical; conditions: 10 μM ATP, 180 μM phosphatidyl inositol, 60 min
T1 construct: PI3K Enzyme Activity Assay IC50 (nM); other: 10 μM ATP, 180 μM phosphatidyl inositol, 60 min
Experimental: PI3K activity was determined using a luminescence assay measuring ATP consumption as described previously (J.-A. Pinson, Z. Zheng, M. S. Miller, D. K. Chalmers, I. G. Jennings, P. E. Thompson, L-Aminoacyl-triazine derivatives are isoform-selective PI3Kβ inhibitors that target nonconserved Asp862 of PI3Kb, ACS Med. Chem. Lett. 4 (2013) 206-210). PI3K enzyme activity was determined in 25 μl of 20 mM HEPES pH 7.5, 5 mM MgCl2 with 180 μM phosphatidyl inositol and 10 μMATP. After a 60 min incubation at room temperature the reaction was stopped by the addition of Kinase-Glo (Promega) followed by a further 15 min incubation. Luminescence was then read using a Fluostar plate reader (BMGLabtech).
Inhibitors were diluted in 20% (v/v) DMSO at the indicated concentrations in order to generate a concentration versus inhibition of enzyme activity curve which was then analysed using GraphPad Prism version 8.00 for Windows, (GraphPad Software, San Diego California USA) in order to calculate the IC50. Standard deviations for the calculated IC50's are within 25% of the mean.

[3] = molecular target: GST-BRD4 (binding domain 1, amino acids 44-168) (Homo sapiens, UniProt O60885); assay: Bromodomain binding assay (FRET); conditions: for IC50: BRD4 binding domain 1, tetracetylated histone 4 peptide
Experimental: Inhibition of bromodomain binding was measured using a FRET (fluorescence resonance energy transfer) based assay. […] In the presence of the two detection reagents, streptavidin D2 and anti-GST-Eu (CisBio) binding trig-gers a FRET signal detected by fluorescence at 665 nm as measured using a Pherastar reader (BMG Labtech). Data was analysed using GraphPad Prism version 8.00 for Windows, (GraphPad Software, San Diego California USA) in order to calculate the IC50. Standard deviations for the calculated IC50's are within 25% of the mean.

Compound | GI50 [1] [µM] | IC50 [2] [µM] | IC50 [3] [µM] | selectivity (BRD-4) [3]
CC(=O)N1c2ccc(-c3ccc(CC(=O)NCc4cc5nc(-c6cnc(N)nc6)nc(N6CCOCC6)c5s4)cc3)cc2CC[C@@H]1C [Cpd 027, (S)-2-(4-(1-Acetyl-2-methyl-1,2,3,4-tetrahydroquinolin-6-yl)phenyl)-N-((2-(2-aminopy-rimidin-5-yl)-4-morpholinothieno[3,2-d]pyrimidin-6-yl)methyl)acetamide] | 0.1 to 0.5 | ≤ 0.1 | – | –
CC(=O)N1c2ccc(-c3ccc(C(=O)NCCNC(=O)c4sc5c(N6CCOCC6)nc(-c6cnc(N)nc6)nc5c4C)cc3)cc2CC[C@@H]1C [Cpd 033, (S)-N-(2-(4-(1-Acetyl-2-methyl-1,2,3,4-tetrahydroquinolin-6-yl)benzamido)ethyl)-2-(2-aminopyrimidin-5-yl)-7-methyl-4-morpholinothieno[3,2-d]pyrimidine-6-carboxamide] | ≤ 0.1 | ≤ 0.1 | – | –
CC(=O)N1c2ccc(-c3ccc(C(=O)NCCNC(=O)c4nc5c(N6CCOCC6)nc(-c6cnc(N)nc6)cn5c4C)cc3)cc2CC[C@@H]1C [Cpd 021, (S)-N-(2-(4-(1-Acetyl-2-methyl-1,2,3,4-tetrahydroquinolin-6-yl)benzamido)ethyl)-6-(2-aminopyrimidin-5-yl)-3-methyl-8-morpholinoimidazo[1,2-a]pyrazine-2-carboxamide] | ≤ 0.1 | ≤ 0.1 | – | –
CC(=O)N1c2ccc(-c3ccc(C(=O)NCc4cc5nc(-c6cnc(N)nc6)nc(N6CCOCC6)c5s4)cc3)cc2CC[C@@H]1C [Cpd 026, (S)-4-(1-Acetyl-2-methyl-1,2,3,4-tetrahydroquinolin-6-yl)-N-((2-(2-aminopyrimidin-5-yl)-4-morpholinothieno[3,2-d]pyrimidin-6-yl)methyl)benzamide] | ≤ 0.1 | 0.1 to 0.5 | – | –
CC(=O)N1c2ccc(-c3ccc(CNC(=O)CNC(=O)c4cn5cc(-c6cnc(N)nc6)nc(N6CCOCC6)c5n4)cc3)cc2CCC1C (centres unmarked) [Cpd 003, N-(2-((4-(1-Acetyl-2-methyl-1,2,3,4-tetrahydroquinolin-6-yl)benzyl)amino)-2-oxoethyl)-6-(2-aminopyrimidin-5-yl)-8-morpholinoimidazo[1,2-a]pyrazine-2-carboxamide] | 0.1 to 0.5 | ≤ 0.1 | > 0.5 | –
CC(=O)N1c2ccc(-c3ccc(C(=O)NCCNC(=O)c4cn5cc(-c6cnc(N)nc6)nc(N6CCOCC6)c5n4)cc3)cc2CCC1C (centres unmarked) [Cpd 009, N-(2-(4-(1-Acetyl-2-methyl-1,2,3,4-tetrahydroquinolin-6-yl)benzamido)ethyl)-6-(2-ami-nopyrimidin-5-yl)-8-morpholinoimidazo[1,2-a]pyrazine-2-carboxamide] | ≤ 0.1 | 0.1 to 0.5 | ≤ 0.1 | –
CC(=O)N1c2ccc(-c3ccc(CN4CCN(Cc5cc6nc(-c7cnc(N)nc7)nc(N7CCOCC7)c6s5)CC4)cc3)cc2CC[C@@H]1C [Cpd 029, (S)-1-(6-(4-((4-((2-(2-Aminopyrimidin-5-yl)-4-morpholinothieno[3,2-d]pyrimidin-6-yl)methyl)piperazin-1-yl)methyl)phenyl)-2-methyl-3,4-dihydroquinolin-1(2H)-yl)ethan-1-one] | 0.1 to 0.5 | 0.1 to 0.5 | – | –
CC(=O)N1c2ccc(-c3ccc(CNC(=O)c4cn5cc(-c6cnc(N)nc6)nc(N6CCOCC6)c5n4)s3)cc2CCC1C (centres unmarked) [Cpd 005, N-((5-(1-Acetyl-2-methyl-1,2,3,4-tetrahydroquinolin-6-yl)thiophen-2-yl)methyl)-6-(2-aminopyrimidin-5-yl)-8-morpholinoimidazo[1,2-a]pyrazine-2-carboxamide] | ≤ 0.1 | ≤ 0.1 | 0.1 to 0.5 | –
CC(=O)N1c2ccc(-c3ccc(C(=O)NCCCNC(=O)c4cn5cc(-c6cnc(N)nc6)nc(N6CCOCC6)c5n4)cc3)cc2CC[C@@H]1C [Cpd 013, (S)-N-(3-(4-(1-Acetyl-2-methyl-1,2,3,4-tetrahydroquinolin-6-yl)benzamido)propyl)-6-(2-aminopyrimidin-5-yl)-8-morpholinoimidazo[1,2-a]pyrazine-2-carboxamide] | > 0.5 | ≤ 0.1 | ≤ 0.1 | –
CC(=O)N1c2ccc(-c3ccc(C(=O)CNC(=O)c4cn5cc(-c6cnc(N)nc6)nc(N6CCOCC6)c5n4)cc3)cc2CCC1C (centres unmarked) [Cpd 008, N-(2-(4-(1-Acetyl-2-methyl-1,2,3,4-tetrahydroquinolin-6-yl)phenyl)-2-oxoethyl)-6-(2-aminopyrimidin-5-yl)-8-morpholinoimidazo[1,2-a]pyrazine-2-carboxamide] | – | ≤ 0.1 | > 0.5 | –
CC(=O)N1c2ccc(-c3ccc(C(=O)CN4CCN(C(=O)c5cn6cc(-c7cnc(N)nc7)nc(N7CCOCC7)c6n5)CC4)cc3)cc2CCC1C (centres unmarked) [Cpd 007, 1-(4-(1-acetyl-2-methyl-1,2,3,4-tetrahydroquinolin-6-yl)phenyl)-2-(4-(6-(2-aminopyrimidin-5-yl)-8-morpholinoimidazo[1,2-a]pyrazine-2-carbonyl)piperazin-1-yl)ethan-1-one] | – | ≤ 0.1 | > 0.5 | –
CC(=O)N1c2ccc(-c3ccc(CNC(=O)c4nc5c(N6CCOCC6)nc(-c6cnc(N)nc6)cn5c4C)cc3)cc2CC[C@@H]1C [Cpd 020, (S)-N-(4-(1-acetyl-2-methyl-1,2,3,4-tetrahydroquinolin-6-yl)benzyl)-6-(2-aminopyrimidin-5-yl)-3-methyl-8-morpholinoimidazo[1,2-a]pyrazine-2-carboxamide] | ≤ 0.1 | ≤ 0.1 | – | –
CC(=O)N1c2ccc(-c3ccc(CN4CCN(C(=O)c5cn6cc(-c7cnc(N)nc7)nc(N7CCOCC7)c6n5)CC4)s3)cc2CCC1C (centres unmarked) [Cpd 004, 1-(6-(5-((4-(6-(2-Aminopyrimidin-5-yl)-8-morpholinoimidazo[1,2-a]pyrazine-2-carbonyl)piperazin-1-yl)methyl)thiophen-2-yl)-2-methyl-3,4-dihydroquinolin-1(2H)-yl)ethan-1-one] | – | 0.1 to 0.5 | 0.1 to 0.5 | –
CC(=O)N1c2ccc(-c3ccc(CNC(=O)c4sc5c(N6CCOCC6)nc(-c6cnc(N)nc6)nc5c4C)cc3)cc2CC[C@@H]1C [Cpd 032, (S)-N-(4-(1-acetyl-2-methyl-1,2,3,4-tetrahydroquinolin-6-yl)benzyl)-2-(2-aminopyrimidin-5-yl)-7-methyl-4-morpholinothieno[3,2-d]pyrimidine-6-carboxamide] | ≤ 0.1 | > 0.5 | – | –
CC(=O)N1c2ccc(-c3ccc(CNC(=O)c4cn5cc(-c6cnc(N)nc6)nc(N6CCNCC6)c5n4)cc3)cc2CC[C@@H]1C.Cl [Cpd 035, (S)-N-(4-(1-acetyl-2-methyl-1,2,3,4-tetrahydroquinolin-6-yl)benzyl)-6-(2-aminopyrimidin-5-yl)-8-(piperazin-1-yl)imidazo[1,2-a]pyrazine-2-carboxamide hydrochloride] | ≤ 0.1 | – | – | selective BRD-4 inhibitor
CC(=O)N1c2ccc(-c3ccc(CNC(=O)c4cc5nc(-c6cnc(N)nc6)nc(N6CCOCC6)c5s4)cc3)cc2CC[C@@H]1C [Cpd 030, (S)-N-(4-(1-acetyl-2-methyl-1,2,3,4-tetrahydroquinolin-6-yl)benzyl)-2-(2-aminopyrimidin-5-yl)-4-morpholinothieno[3,2-d]pyrimidine-6-carboxamide] | ≤ 0.1 | > 0.5 | – | –
CC(=O)N(Cc1ccc(-c2ccc3c(c2)CC[C@H](C)N3C(C)=O)cc1)Cc1sc2c(N3CCOCC3)nc(-c3cnc(N)nc3)nc2c1C [Cpd 056, (S)-N-(4-(1-Acetyl-2-methyl-1,2,3,4-tetrahydroquinolin-6-yl)benzyl)-N-((2-(2-aminopy-rimidin-5-yl)-7-methyl-4-morpholinothieno[3,2-d]pyrimidin-6-yl)methyl)acetamide] | 0.1 to 0.5 | – | – | –
CC(=O)N1c2ccc(-c3ccc(C(=O)N4CCN(Cc5cc6nc(-c7cnc(N)nc7)nc(N7CCOCC7)c6s5)CC4)cc3)cc2CC[C@@H]1C [Cpd 028, (S)-1-(6-(4-(4-((2-(2-Aminopyrimidin-5-yl)-4-morpholinothieno[3,2-d]pyrimidin-6-yl)methyl)piperazine-1-carbonyl)phenyl)-2-methyl-3,4-dihydroquinolin-1(2H)-yl)ethan-1-one] | 0.1 to 0.5 | 0.1 to 0.5 | – | –
CC(=O)N1c2ccc(-c3ccc(C(=O)NCCNC(=O)c4cc5nc(-c6cnc(N)nc6)nc(N6CCOCC6)c5s4)cc3)cc2CC[C@@H]1C [Cpd 031, (S)-N-(2-(4-(1-Acetyl-2-methyl-1,2,3,4-tetrahydroquinolin-6-yl)benzamido)ethyl)-2-(2-aminopyrimidin-5-yl)-4-morpholinothieno[3,2-d]pyrimidine-6-carboxamide] | ≤ 0.1 | 0.1 to 0.5 | – | –
